From patent US11724987B2, “Compositions and methods of treating retinal disease” (Aldeyra Therapeutics, Inc., priority 2005, dated 2023)
One block for each compound: values may come before it.

Tests used:
[1] = vendor value; cited from earlier work
[2] = test system: dark adapted rats; experiment: ERG analysis of dark adaptation, dose ranging protocol; assay type: in vivo, rat; conditions: i.p.
Procedure: Dark adaptation is the recovery of visual sensitivity following exposure to light. Dark adaptation has multiple components including both fast (neuronal) processes and slow (photochemical) process. Regeneration of visual pigment is related to the slow photochemical process. Dark adaptation rates are measured for several reasons. Night blindness results from a failure to dark adapt (loss of visual light sensitivity). It is possible to find a safe dose for night vision by measuring drug effects on dark adapted visual light sensitivity.
An electroretinogram (ERG) is used measure dark adaptation under normal vs. drug conditions. ERG is the measurement of the electric field potential emitted by retinal neurons during their response to an experimentally defined light stimulus. More specifically, ERG measures retinal field potentials at the cornea after a flash of light (e.g., 50 ms). Field strengths are 10^2 to 10^3 microvolts, originating in retinal cells.
In a typical ERG analysis of dark adaptation experiment, every rat is dark adapted for hours to reach a consistent state of light sensitivity. […]
The ERG measurement is taken after a specific duration of post-bleach dark recovery (e.g., 30 min) determined previously by kinetic analysis (see FIGS. 6a and 6b). […]

[3] = test system: human retinal vision; conditions: human occupational exposure, absorbed by the skin; cited from earlier work
[4] = NMR analysis of RAL reactions (Schiff base condensation and ring formation); conditions: for tau (minutes) condense: Schiff base condensation with RAL; for tau (minutes) ring: ring formation after condensation with RAL
[5] = negative control; cited from earlier work

SMILES: CCOC(=O)c1csc(N)n1 [Compound 1]
calculated logP vendor [1]: 1.2

SMILES: COC(=O)c1nc(N)sc1Cl [Compound 2]
calculated logP vendor [1]: 1.3

SMILES: Nc1nccs1 [Compound 3]
calculated logP vendor [1]: 0.8

SMILES: CCOC(=O)Cc1csc(N)n1 [Compound 4]
calculated logP vendor [1]: 1.4

duration of effect on vision ([2]; rats, ERG): decreases after 3 hours
SMILES: CCOC(=O)c1cccc(N)c1 [Compound 6, tricaine methane sulfonate]
ERG light sensitivity of dark adapted rats ([2]; dose ranging, FIG. 7): lowers light sensitivity of dark adapted rats in a dose dependent manner
calculated logP vendor [1]: 1.8
effect on night vision [3]: attenuates night vision reversibly

SMILES: CC(C)(O)c1ccccc1N [Compound 8]
tau (minutes) condense [4]: 122 min
tau (minutes) ring [4]: 109 min

SMILES: CC(C)(O)c1nc2ccc(Cl)cc2cc1N [Compound 9]
tau (minutes) condense [4]: 320 min
tau (minutes) ring [4]: 568 min

SMILES: CCN(CC)CC(=O)Nc1c(C)cccc1C [lidocaine]
Schiff base formation [5]: does not form a Schiff base
